Test results taken from publication PMC10184116, “Liposomal Permeation Assay for Droplet-Scale Pharmacokinetic Screening” (Journal of Medicinal Chemistry, 2023).
Starred links: 1 amine or outer side, 2 acyl side, 3 side chain; linkers in the order of their positions; H or OH if unused. Positions of bridges follow the written chain, without caps; N, C: chain ends. Non-standard residues stand in square brackets, D forms with d. Residues, ends and D or L forms follow the SMILES beside them. oXylylene = c1ccc(C[*:2])c(C[*:1])c1; Pra = C#CC[C@H](N)C(=O)O

What was measured:
Type in all cases: in vitro ADME
[1] = Parallel artificial membrane permeability assay (PAMPA), egg lecithin in dodecane; conditions: for Permeability class of control alkynes: control alkynes' permeabilities measured previously (ref 38) or via PAMPA (SI Table S1)
Description: A modified PAMPA was used for compound permeability measurements and was performed by Pharmaron. Briefly, alkyne stock solution (1 mM in DMSO) was diluted (50 μM final in PBS, pH 7.4). The lipid solution (1.8% w/v egg lecithin in dodecane, 5 μL spotting volume) was added to each acceptor well of the multiscreen-IP filter plate. PBS (300 μL) was added to all wells of the acceptor plate, and diluted alkyne stock (300 μL) was added to the wells of the donor plate in triplicate. The plate was assembled and incubated (16 h, 37 °C). An aliquot of donor well sample (2.5 μL) was diluted in PBS (47.5 μL), and an aliquot of the acceptor well (50 μL) was transferred to a 96-well analysis plate. Internal standard (100 nM alprazolam, 200 nM caffeine, 200 nM diclofenac in 100% MeOH) was added to all samples. Samples were vortexed and centrifuged (20 min, 3220g), then analyzed by LC-MS/MS.
The effective permeability (Pe) was calculated as [drawing 1] 1 [drawing 2] 2 where VD is the donor compartment volume (0.3 mL), VA is the acceptor compartment volume (0.3 mL), A is the filter area (0.24 cm^2), and t is the time (16 h).

[2] = Microplate fluorogenic CuAAC liposomal permeation assay (CF-N3-loaded SUVs); conditions: for Permeation in liposomal assay: reaction with liposomal CF-N3 (in words): real-time fluorogenic CuAAC
Description: DOPC or DOPG (10 mg/mL, 500 μL) were pipetted into a scintillation vial (20 mL), or DOPC (10 mg/mL, 400 μL) and POPC (10 mg/mL, 100 μL) were pipetted into a scintillation vial (20 mL). Samples were dried under argon then evaporatively dried in a vacuum desiccator (16 h). Degassed PBS buffer was combined with CF-N3 probe (1, 4, or 20 μM final) and ascorbic acid (AA, 10 mM). Lipid film was resuspended using degassed probe/AA/PBS buffer solution (1 mL), and the vial was incubated on a hot plate (15 min, 37 °C) with gentle vortexing (every 5 min). Lipid suspension was sonicated (1 min, Branson 3510 DTH ultrasonic cleaner) followed by rest (1 min), repeating 9 additional times. Liposomes were generated by extrusion (11 passages, 100 nm polycarbonate membrane, Mini-Extruder, Avanti Polar Lipids). Liposome solution was loaded into dialysis cassettes (10K MWCO, 3 mL Slide-A-Lyzer) and incubated in PBS buffer (1 L, 16 h, 4 °C). Liposome size distributions and stability were analyzed by dynamic light scattering (DLS, Zetasizer Nano ZS, Malvern Panalytical, United Kingdom).
The same protocol was followed to produce and characterize liposomes with other lipid compositions. DOPC (10 mg/mL, 400 μL), POPC (10 mg/mL, 100 μL), and cholesterol (5 mg/mL, 50/100 μL for 10%/20% mole of cholesterol, respectively) were combined, dried, and rehydrated with probe solution in scintillation vials. Brain polar lipid extract (25 mg/mL, 200 μL) or E. coli polar lipid extract (25 mg/mL, 200 μL) were dried and rehydrated with probe solution in scintillation vials.
CuSO4 (4 mg) was dissolved in DI H2O (500 μL, 50 mM), L-ascorbic acid (8.8 mg) was dissolved in PBS (500 μL, 100 mM), TBTA (2.7 mg) was dissolved in DMSO (509 μL, 10 mM), and mPEG17/mPEG8/mPEG4/PEG4s/propargyl amine/Cyc1–4 stock solutions (50 mM, with the purity > 95% by HPLC analysis) were prepared in DMSO, and CF-N3 was dissolved in DMSO (2 mM). Fluorogenic CuAAC reaction premixture was prepared by combining CuSO4 (10 μL) and TBTA (8 μL) in PBS (982 μL). Alkyne analytes were diluted (0.1 mM in CuAAC reaction premixture +2% DMSO). Free probe solution was prepared with CF-N3 (4 μM) and L-ascorbic acid (10 mM) in PBS buffer. Alkyne analyte in CuAAC premixture (5 μL) or CuAAC premixture +2% DMSO (5 μL) blank sample was combined with liposome (5 μL) or free probe solution (5 μL) in microtiter plate wells (384-well, Greiner, Thermo Scientific). Transient assay fluorescence (λex/λem = 488/530 nm) was detected using a multimode plate reader (CLARIOstar, BMG). Fluorescence fold gain was calculated by dividing the sample fluorescence by blank fluorescence. Initial velocities (V0) were obtained by linear regression analysis of the fluorescence fold gain after the initial lag period.
Assays were assembles as described above, combining liposomal probe (5 μL; 4 μ M CF-N3, 10 mM ascorbic acid, E. coli lipid SUV) with alkyne sample (5 μL) but with varying concentrations of mPEG4, mPEG8, mPEG17, and PEG4s (0.0001/0.001/0.005/0.01/0.05/0.1/0.5/1/5 mM) or Cyc1–4 (0.0001/0.001/0.005/0.01/0.05/0.1/0.5 mM). Broken liposomal V0 was obtained by combining liposomal probe (5 μL) with Triton X-100 solution (0.42 μL, 10% w/v), then adding the highest concentration sample for each alkyne (5 μL; 0.5 mM Cyc1–4 or 5 mM PEG samples). Transient assay fluorescence (λex/λem = 488/530 nm) was detected using a multimode plate reader (CLARIOstar). Each [alkyne] V0 was divided by the corresponding broken liposome maximum [alkyne] V0,broken. These normalized data were fit to a sigmoid to determine the [alkyne] at which V0/V0,broken was 50% maximum (PC50).

[3] = Microfluidic droplet-scale liposomal permeation assay of photocleaved control beads; conditions: photocleaved from control beads on-chip by UV, E. coli polar lipid SUVs, 9% dextran
Description: Microfluidic droplet-based screening was performed in a UV-free room as previously described.[37],[47] Briefly, perfluorous oil phase (Novec 7500) with stabilizer (4% Pico-Surf) was loaded into a syringe (1 mL, BD Tuberculin, BD Medical, Franklin Lakes, NJ) fitted with blunt-end needle (30 gauge QuantX, Fisnar, Germantown, WI) and connected to the microfluidic device OIL1 inlet via Tygon microbore tubing (0.01” I.D. × 0.03” O.D. × I.D., United States Plastic Corp.). Aqueous inputs (AQ1 and AQ2, see below) were loaded into the syringes and connected to AQ inlets of the microfluidic device. Novec 7500 was loaded into syringes (10 mL) and similarly connected to the device via Tygon microbore tubing as spacing oil (OIL2) and flow focusing oil (OIL3). The incubation channel was primed with Novec 7500 by filling from the OIL2 and OIL3 inputs before initiating flows from OIL1 and AQ inlets. OIL and AQ flows were driven by syringe pumps (Legato 101, KD Scientific, Holliston, MA): AQ1 (400 nL/min) AQ2 (400 nL/min), OIL1 (500 nL/min), OIL2 (16 μ L/min), and OIL3 (6 μL/min). […]
Fluorescence data were acquired using a custom confocal laser-induced fluorescence detection system. Droplets were detected based on internal standard (cTMR) signal in PMT 2 as previously described.[36] CF-N3 probe fluorescence was detected in PMT 1. […] Once a droplet was detected, the average PMT 1 signal was calculated. […]

[4] = multiple SUV lipid formulations

SMILES | Permeability class of control alkynes [1] | Permeation in liposomal permeation assay (in words) [2, 4] | other results
C#CCOCCOCCOCCOCCS(=O)(=O)O [PEG4s, propargyl-PEG4-sulfonic acid] | impermeable |  | 
C#CC[C@H](NC(=O)[C@H](Cc1c[nH]cn1)NC(=O)[C@H](Cc1c[nH]c2ccccc12)NC(=O)[C@@H](NC(=O)[C@H](Cc1c[nH]cn1)NC(=O)[C@H](Cc1ccccc1)NC(=O)[C@H]1CSCc2ccccc2CSC[C@@H](NC(=O)[C@@H](N)C(C)C)C(=O)N[C@@H](CC(N)=O)C(=O)N[C@@H](C)C(=O)N1)[C@@H](C)CC)C(N)=O [DD5o] (H-V[dC]NA[dC]FHIWH[Pra]-NH2; linker 2-5 via oXylylene) |  |  | Permeation in liposomal permeation assay (in words) ([2]; DOPG vesicles, PPA and PEG4s as controls (SI Figure S5)): permeable
C#CCN [PPA, propargylamine] | permeable |  | Lag before reaching steady V0 in reaction with liposomal CF-N3 ([2]; CF-N3-loaded DOPC-POPC SUVs): ~10 min; Permeation in liposomal assay: reaction with liposomal CF-N3 (in words) ([2]; CF-N3-loaded DOPC-POPC SUVs): reacted
C#CCOCCOCCOCCOCCOCCOCCOCCOC [mPEG8, m-PEG8-propargyl] |  | readily permeated | 
C#CCOCCOCCOCCOCCOCCOCCOCCOCCOCCOCCOCCOCCOCCOCCOCCOCCOC [mPEG17, propargyl-PEG17-methane] | impermeable | largely impermeable | Papp at 16 h, 50 μM ([1]; egg lecithin PAMPA, 50 μM, PBS pH 7.4, 16 h, 37 °C, read-out: PAMPA Pe): > 0.004 ×10⁻⁶ cm/s; Permeation in liposomal assay: reaction with liposomal CF-N3 (in words) ([2]; CF-N3-loaded DOPC-POPC SUVs): undetectable
C#CCNC(=O)C(N)C(C)C (stereo not drawn) [PPA–V, valine-N-propargylamide] |  |  | Permeation in droplet-scale liposomal permeation assay (in words) [3]: permeable
C#CCOCCOCCOCCOC [mPEG4, m-PEG4-propargyl] |  | readily permeated | 
